Data on three compounds can be found in US20200087625A1, “METHODS FOR ISOLATING, EXPANDING AND ADMINISTERING CANCER SPECIFIC CD8+ T CELLS” (priority 2017, published 2020).

Structures are written as SMILES.

One data set relates to dermatological tumors. The note with it: cited from earlier work.
The test system of the next data set is metastatic lung tumors. The note with it: intratracheal administration; cited from earlier work.
Data set [1] can be described thus: Serum cytokine analysis (Luminex) after systemic administration. It counts as in vivo, BALB/c mice. The note with it: mouse, in vivo. On the procedure: FIG. 36. […] BALB/c mice (n=5) were i.p. administered IV270 (200 μg=185 nmol/injection) or […] (58 μg=185 nmol/injection) and sera were collected 2, 4, 6, and 24 hours following the administration. The levels of TNFα, IL-12, and IP-IO were measured by Luminex assay. *P<0.05, **P<0.01 by two way ANOVA using a Bonferroni post hoc test comparing treatment groups.
The sera were collected from mice receiving […] of 1V136, 1V270 or vehicle 2, 4, 6, and 24 hours after i.p. administration (15). Cytokine levels in sera were determined by Luminex bead assays (MILLIPLEX™ MAP kit, Millip ore, Billerica, Mass.).

Turning to `CC(C)Cn1cnc2c(N)nc3ccccc3c21` [imiquimod], in the data set on dermatological tumors (patients with basal cell carcinoma and actinic keratosis, topical), the clinical efficacy result is “favorable clinical efficacy”. Also, the “toxicity on systemic administration” value in the data set on dermatological tumors (systemic administration) was “immunotoxicity induced by systemic administration”.
As to `CCCCNc1nc(N)c2[nH]c(=O)n(Cc3ccc(C)nc3)c2n1` [SM276001], the metastatic lung tumors entry in the data set on metastatic lung tumors is given as “suppress metastatic lung tumors”.
`COCCOc1nc(N)c2[nH]c(=O)n(Cc3ccccc3)c2n1` [1V136, reference compound]: the systemic proinflammatory cytokines entry in data set [1] is given as “high levels of systemic proinflammatory cytokines”.
